Among the test systems are 786-0; A498; ACHN; CAKI-1; CCRF-CEM; EKVX; HCT-116; Hs-578T; LOX IMVI; MDA-MB-231; MOLT-4; NCI-H23; NCI-H460; OVCAR-5; PC-3; SN12C; SNB-75; SR; SW-620; U-251.
Assay in all cases: DTP human tumour cell line panel, 48 h

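Following 48 hours of exposure in 96-well plates, responses at five concentrations were used to interpolate endpoints linearly. GI50 marks 50% less growth.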 Active and inactive are the calls of the source. Cut-off read from the data, not from the text of the source: active = GI50 up to about 1.1 µM and inactive = higher.

The text below walks through data of ChEMBL document CHEMBL1201862, “PubChem BioAssay data set” (2004).

As usually defined, the GI50 is the concentration giving 50% growth inhibition.

With `Nc1ncn(C2OC(COP(=O)(O)O)C(O)C2O)c(=O)n1` (stereo not given), the GI50 in the test on 786-0 was > 86.3 µM (inactive); in the test with A498, > 100 µM (inactive); in the test on ACHN, 54.6 µM (inactive); in the test with CAKI-1 it was > 71.9 µM (inactive); in the test with CCRF-CEM it was 1.87 µM (inactive); with EKVX, > 58.2 µM (inactive). For the same compound, the GI50 was 75.9 µM (inactive) in the test on HCT-116; > 100 µM (inactive) in the test on Hs-578T; > 100 µM (inactive) in the test with LOX IMVI; > 100 µM (inactive) in the test on MDA-MB-231; 2.39 µM (inactive) in the test with MOLT-4; > 81.8 µM (inactive) in the test with NCI-H23. For the same compound, the GI50 is 52.8 µM (inactive) in the test on NCI-H460; > 100 µM (inactive) with OVCAR-5; > 100 µM (inactive) with PC-3; 63.5 µM (inactive) with SN12C; > 100 µM (inactive) in the test on SNB-75; > 91.6 µM (inactive) in the test with SR. For the same compound, the GI50 with SW-620 and with U-251 was > 100 µM (inactive) in each case.
Take `O=C(O)CSC(CC(=O)c1ccc(Cl)cc1)c1ccc(Cl)cc1` (stereo not given): the GI50 in the test with 786-0 was 21.8 µM (inactive); in the test with A498, 41.6 µM (inactive); with ACHN, 79.1 µM (inactive); with CAKI-1 it was 35.3 µM (inactive); with CCRF-CEM, 8.71 µM (inactive); in the test with EKVX, 41 µM (inactive). The GI50 was 5.77 µM (inactive) in the test on HCT-116; 34.6 µM (inactive) in the test on Hs-578T; 17.3 µM (inactive) in the test on LOX IMVI; 42 µM (inactive) with MDA-MB-231; 6.81 µM (inactive) in the test on MOLT-4; 42.7 µM (inactive) in the test with NCI-H23. Moreover, the GI50 in the test with NCI-H460 is 30.8 µM (inactive); with OVCAR-5 it was > 100 µM (inactive); in the test on PC-3, 37.4 µM (inactive); with SN12C it was 43 µM (inactive); in the test with SNB-75, 49.8 µM (inactive); in the test on SR it was 2.36 µM (inactive). Moreover, the GI50 with SW-620 is 4.17 µM (inactive); in the test with U-251, 29 µM (inactive).
With `CC(C)Oc1cc2c(cc1O)CC[C@@H]1[C@@H]2CC[C@]2(C)[C@@H](O)CC[C@@H]12`, the GI50 in the test on 786-0 is 4.65 µM (inactive); in the test with A498 it was 6.65 µM (inactive); in the test with ACHN, 9.89 µM (inactive); with CAKI-1, 1.52 µM (inactive); in the test with CCRF-CEM, 2.9 µM (inactive); with EKVX, 12.7 µM (inactive). Also, the GI50 in the test on HCT-116 is 3.33 µM (inactive); with Hs-578T, 2.38 µM (inactive); in the test with LOX IMVI, 4.58 µM (inactive); in the test on MDA-MB-231 it was 8.36 µM (inactive); in the test with MOLT-4, 4.74 µM (inactive); in the test on NCI-H23 it was 7.19 µM (inactive). Further, the GI50 is 3.28 µM (inactive) in the test on NCI-H460; 27.5 µM (inactive) in the test on OVCAR-5; 8.97 µM (inactive) in the test with PC-3; 5.66 µM (inactive) in the test with SN12C; 4.69 µM (inactive) in the test on SNB-75; 0.575 µM (active) in the test on SR. Besides, the GI50 with SW-620 is 2.72 µM (inactive); in the test with U-251, 13.3 µM (inactive).
In the case of `C/C=C/c1cc2c(cc1O)CC[C@@H]1[C@@H]2CC[C@]2(C)[C@@H](O)CC[C@@H]12`, the GI50 in the test on 786-0 is 0.053 µM (active); with A498 it was 0.146 µM (active); with ACHN it was 0.0594 µM (active); in the test with CAKI-1 it was 0.0144 µM (active); with CCRF-CEM, 0.0289 µM (active); with EKVX, 5.07 µM (inactive). The GI50 in the test on HCT-116 was 0.022 µM (active); in the test on Hs-578T it was 0.0653 µM (active); in the test on LOX IMVI, 0.0357 µM (active); with MDA-MB-231, 0.317 µM (active); in the test with MOLT-4 it was 0.0409 µM (active); with NCI-H23, 0.133 µM (active). Further, the GI50 in the test with NCI-H460 is 0.0275 µM (active); in the test on OVCAR-5, 10.8 µM (inactive); in the test with PC-3 it was 2.37 µM (inactive); in the test on SN12C, 0.08 µM (active); in the test on SNB-75, 0.188 µM (active); with SR it was 0.0259 µM (active). Moreover, the GI50 was 0.04 µM (active) in the test with SW-620 and 0.0315 µM (active) in the test on U-251.
